In the CheMixHub viscosity set:
Where “and” joins values, the source holds several entries; their conditions need not be identical. Equal values may be shown once.

Experiments:
[1] = xn = mol fraction of the nth substance listed

CC[P+](c1ccccc1)(c1ccccc1)c1ccccc1.[Br-] + CN(CCO)CCO
viscosity [mPa·s], [1], 100 kPa
Details	293.15 K	303.15 K	313.15 K	323.15 K
x1 = 0.05673	152.7	81.77	47.16	29.08
x1 = 0.08776	192.3	100.3	56.67	34.34
x1 = 0.1208	238	121	66.81	39.76

Oc1ccccc1 + O=Cc1ccccc1
[1], 308.15 K, 101.33 kPa
Details	viscosity [mPa·s]
x2 = 0.107	4.318
x2 = 0.303	2.944
x2 = 0.39	2.642
x2 = 0.499	2.401
x2 = 0.595	1.989
x2 = 0.706	1.55
x2 = 0.904	1.2

CC=CC(=O)O + Cc1ccccc1
viscosity [mPa·s], [1], 101 kPa
Details	298.15 K	303.15 K	313.15 K	323.15 K
x1 = 0.0503	0.5712	0.5371	0.4796	0.4317
x1 = 0.0975	0.5997	0.5609	0.4998	0.4502
x1 = 0.148	0.6218	0.5858	0.5213	0.4671

Oc1ccccc1 + C1COCCO1
[1], 308.15 K, 101 kPa
Details	viscosity [mPa·s]
x2 = 0.1	4.829
x2 = 0.2	4.471
x2 = 0.3	3.888
x2 = 0.4	3.179
x2 = 0.5	2.568
x2 = 0.6	2.062
x2 = 0.7	1.664
x2 = 0.8	1.371
x2 = 0.9	1.141

ClC(Cl)C(Cl)Cl + CC#N
[1], 303.15 K, 101.32 kPa
Details	viscosity [mPa·s]
x2 = 0.1125	1.381
x2 = 0.2007	1.315
x2 = 0.2582	1.266
x2 = 0.3568	1.17
x2 = 0.4174	1.103
x2 = 0.4937	1.012
x2 = 0.5964	0.8767
x2 = 0.6989	0.7317
x2 = 0.8504	0.5162
x2 = 0.9233	0.4184

COCCOCCOC
Details	viscosity
298.15 K, 101 kPa	0.983 mPa·s and 0.983 mPa·s and 0.996 mPa·s
298.15 K, 101.32 kPa	0.989 mPa·s
301.15 K, 100 kPa	1.2 mPa·s and 1.3 mPa·s and 1.4 mPa·s
303.15 K, 101 kPa	0.923 mPa·s
303.15 K, 101.33 kPa	0.904 mPa·s
308.15 K, 101 kPa	0.839 mPa·s and 0.839 mPa·s and 0.868 mPa·s
318.15 K, 101 kPa	0.721 mPa·s and 0.721 mPa·s
318.15 K, 101.33 kPa	0.728 mPa·s (4×) and 0.725 mPa·s and 0.728 mPa·s

CO/N=C(\C(=O)N[C@@H]1C(=O)N2C(C(=O)[O-])=C(CSc3nc(C)c(CC(=O)[O-])s3)CS[C@H]12)c1csc(N)n1.[Na+].[Na+] + O
Details	viscosity [mPa·s]
[1], 293.15 K, 101 kPa, x1 = 0.002695	1.285

COCCOCCOC + CCCCCCCCCCCC
viscosity [mPa·s], [1], 101.33 kPa
Details	x1 = 0.1009	x1 = 0.1998	x1 = 0.2993	x1 = 0.4034	x1 = 0.5021	x1 = 0.6015	x1 = 0.7024	x1 = 0.8008	x1 = 0.9003
298.15 K	1.236	1.157	1.11	1.074	1.043	1.02	1.001	0.981	0.98
308.15 K	1.038	0.976	0.94	0.909	0.884	0.865	0.849	0.837	0.835
318.15 K	0.88	0.83	0.801	0.78	0.757	0.743	0.728	0.72	0.719

Oc1ccccc1 + CC(C)=O
viscosity [mPa·s], [1], 101 kPa
Details	293.2 K	302.95 K	313.25 K	322.95 K
x1 = 0.0613	–	0.36	0.328	0.299
x1 = 0.0926	0.429	–	–	–
x1 = 0.1303	–	0.441	0.399	0.36
x1 = 0.1837	0.56	–	–	–
x1 = 0.1912	–	0.521	0.47	0.422
x1 = 0.2695	–	0.67	0.59	0.53
x1 = 0.2749	0.755	–	–	–
x1 = 0.3325	–	0.808	0.711	0.628
x1 = 0.3763	1.055	–	–	–
x1 = 0.4181	–	1.058	0.904	0.794
x1 = 0.458	1.379	–	–	–
x1 = 0.4832	–	1.319	1.101	0.95
x1 = 0.5364	1.853	–	–	–
x1 = 0.5583	–	1.658	1.363	1.15
x1 = 0.6341	2.75	–	–	–
x1 = 0.6402	–	2.18	1.741	1.425
x1 = 0.6982	3.59	–	–	–
x1 = 0.7215	–	2.91	2.23	1.785
x1 = 0.7829	4.97	–	–	–
x1 = 0.8187	–	3.915	2.875	2.245
x1 = 0.8885	–	4.905	3.465	2.615
x1 = 0.8891	7.3	–	–	–

COC(=O)OC
viscosity
Details	293.15 K	298.15 K	303.15 K	308.15 K	313.15 K	318.15 K	323.15 K
100 kPa	0.62 mPa·s	0.58 mPa·s	0.5 mPa·s	0.47 mPa·s	0.45 mPa·s and 0.489 mPa·s	0.43 mPa·s and 0.462 mPa·s	0.38 mPa·s and 0.437 mPa·s
101 kPa	0.624 mPa·s	0.58 mPa·s	0.55 mPa·s and 0.55 mPa·s	0.49 mPa·s and 0.519 mPa·s	0.45 mPa·s and 0.491 mPa·s	0.4 mPa·s and 0.465 mPa·s	0.442 mPa·s
101.3 kPa	0.628 mPa·s	–	0.553 mPa·s	0.524 mPa·s	0.496 mPa·s	–	–
101.33 kPa	–	–	0.503 mPa·s	0.474 mPa·s	–	–	–
